Measured values published in BigSolDB 2.1.

CO[C@H]1C[C@@H]2CC[C@@H](C)[C@@](O)(O2)C(=O)C(=O)N2CCCC[C@H]2C(=O)O[C@H]([C@H](C)C[C@@H]2CC[C@@H](O)[C@H](OC)C2)CC(=O)[C@H](C)/C=C(\C)[C@@H](O)[C@@H](OC)C(=O)[C@H](C)C[C@H](C)/C=C/C=C/C=C/1C
solubility (mole fraction)
Conditions	in acetone	in chloroform	in dichloromethane	in ethanol	in methanol
295 K	0.00316	0.00272	0.0019	0.00137	0.00072
300 K	0.00321	0.00289	0.00201	0.00143	0.00088
305 K	0.00343	0.00311	0.0022	0.00163	0.00107
310 K	0.00388	0.00325	0.00246	0.00184	0.00123
315 K	0.00433	0.00346	0.00271	0.00197	0.00143
320 K	0.0047	0.00369	0.00279	0.0021	0.00146
325 K	0.00487	0.00386	0.00306	0.00237	0.00163
330 K	0.00511	0.00413	0.00333	0.00259	0.00171
335 K	0.00545	0.00437	0.00351	0.00275	0.00183
340 K	0.00627	0.00458	0.00397	0.00291	0.00188
345 K	0.00721	0.00495	0.00433	0.00317	0.00205
